Here are results for 28 compounds from ChEMBL document CHEMBL1140032, “Furoxan-, alkylnitrate-derivatives and related compounds as anti-trypanosomatid agents: mechanism of action studies” (2008).

Structures are written as SMILES.

What all share (assay type): functional
Experiment [1] has as its system Trypanosoma cruzi. The experiment can be described thus: Antitrypanosomal activity against Trypanosoma cruzi Tulahuen 2 assessed as inhibition of epimastigotes growth after 5 days by MTT assay relative to control. As to conditions: Tulahuen 2, 120 h, read-out: ID50 (the source's name).
For experiment [2], the system named is Trypanosoma cruzi. In words: Antitrypanosomal activity against Trypanosoma cruzi CL Brener assessed as parasite viability after 5 days by MTT assay. As to conditions: 120 h, read-out: ID50 (the source's name). (Tetrazolium assays rely on reduction of a dye to a coloured formazan, in cell work by metabolically active cells.)
The subject of another experiment is Leishmania pifanoi. In words: Antileishmanial activity against Leishmania pifanoi MHOM/VE/57/LV135 assessed as parasite viability after 5 days by MTT assay. As to conditions: 120 h, read-out: ID50 (the source's name).
The subject of experiment [3] is Trypanosoma cruzi. The experiment can be described thus: Antitrypanosomal activity against Trypanosoma cruzi Y assessed as parasite viability after 5 days by MTT assay. As to conditions: 120 h, read-out: ID50 (the source's name).
Another experiment relates to Leishmania braziliensis. The experiment can be described thus: Antileishmanial activity against Leishmania braziliensis MHOM/BR/00/LTB300 assessed as parasite viability after 5 days by MTT assay. As to conditions: 120 h, read-out: ID50 (the source's name).
Experiment [4] relates to Trypanosoma cruzi. In words: Antitrypanosomal activity against Trypanosoma cruzi Tulahuen 2 assessed as inhibition of growth of epimastigotes at 25 uM after 5 days by MTT assay relative to control. As to conditions: Tulahuen 2, 120 h, read-out: GI.

For `CCOc1c(-c2ccccc2)no[n+]1[O-]`, the IC50 in the experiment with Trypanosoma cruzi [1] came out at 18 µM.
Same read-out and setting: the value for `CCOC(=O)COc1no[n+]([O-])c1S(=O)(=O)c1ccccc1` was 7.5 µM.
On to `NC(=O)CS(=O)(=O)c1no[n+]([O-])c1-c1ccccc1`, for which the IC50 in the experiment with Trypanosoma cruzi [2] is more than 50 µM; in the experiment with Leishmania pifanoi, more than 50 µM; with Trypanosoma cruzi [3], 48 µM; with Trypanosoma cruzi [1], 25 µM; with Leishmania braziliensis, more than 50 µM.
Consider `O=S(=O)(c1ccccc1)c1no[n+]([O-])c1S(=O)(=O)c1ccccc1`, for which, in the experiment on Trypanosoma cruzi [1], the IC50 was found to be 3.5 µM.
As for `COc1ccccc1NCCS(=O)(=O)c1nonc1-c1ccccc1`, the IC50 with Trypanosoma cruzi [2] was more than 50 µM; in the experiment with Leishmania pifanoi it was 15.8 µM; in the experiment with Trypanosoma cruzi [3] it was 50 µM; in the experiment on Trypanosoma cruzi [1], 10 µM; in the experiment with Leishmania braziliensis, 11.6 µM.
Regarding `CN(C)C(=O)CS(=O)(=O)c1c(-c2ccccc2)no[n+]1[O-]`, the IC50 with Trypanosoma cruzi [1] turned out to be 7.5 µM.
Regarding `O=C(Cn1ccnc1[N+](=O)[O-])NCc1ccccc1` [BENZNIDAZOLE], the IC50 in the experiment with Leishmania pifanoi is 3.8 µM; in the experiment with Trypanosoma cruzi [1] it was 4.5 µM.
Consider `Cc1ncc([N+](=O)[O-])n1CCOc1nonc1S(=O)(=O)c1ccccc1`, for which the IC50 with Trypanosoma cruzi [1] stood at 19 µM.
For the compound `NC(=O)CSc1no[n+]([O-])c1-c1ccccc1`, the IC50 with Trypanosoma cruzi [2], in the experiment on Leishmania pifanoi, in the experiment with Trypanosoma cruzi [3] and in the experiment with Leishmania braziliensis was more than 50 µM in each case. In addition, the inhibition of growth at 25 µM with Trypanosoma cruzi [4] amounted to 12%.
In the case of `O=S(=O)(CCO)c1no[n+]([O-])c1-c1ccccc1`, the IC50 in the experiment on Trypanosoma cruzi [1] is 25 µM.
Regarding `[O-][n+]1onc(-c2ccccc2)c1Br`, the IC50 with Trypanosoma cruzi [1] is 5 µM.
Still for that read-out and setting: the value for `Cc1ncc([N+](=O)[O-])n1CCOc1no[n+]([O-])c1-c1ccccc1` was 4 µM; that for `[O-][n+]1onc(Br)c1-c1ccccc1` was 13 µM; that for `CCOc1no[n+]([O-])c1S(=O)(=O)c1ccccc1` was 7.5 µM.
In the case of `NC(=O)CS(=O)(=O)c1nonc1-c1ccccc1`, the IC50 in the experiment on Trypanosoma cruzi [2], in the experiment with Leishmania pifanoi, with Trypanosoma cruzi [3] and in the experiment on Leishmania braziliensis was more than 50 µM throughout. The inhibition of growth at 25 µM in the experiment on Trypanosoma cruzi [4] worked out at 27%.
Consider `NC(=O)CSc1nonc1-c1ccccc1`, for which the IC50 with Trypanosoma cruzi [2], in the experiment on Leishmania pifanoi, with Trypanosoma cruzi [3] and in the experiment on Leishmania braziliensis was more than 50 µM each time. In addition, in the experiment on Trypanosoma cruzi [4], the inhibition of growth at 25 µM came out at 17%.
Regarding `NC(=O)CSc1c(-c2ccccc2)no[n+]1[O-]`, the IC50 in the experiment with Trypanosoma cruzi [2], in the experiment with Leishmania pifanoi, in the experiment with Trypanosoma cruzi [3] and in the experiment with Leishmania braziliensis was more than 50 µM throughout. Moreover, in the experiment on Trypanosoma cruzi [4], the inhibition of growth at 25 µM is 19%.
For the compound `Cc1ncc([N+](=O)[O-])n1CCOc1no[n+]([O-])c1S(=O)(=O)c1ccccc1`, in the experiment with Trypanosoma cruzi [1], the IC50 was found to be 5 µM.
`O=S(=O)(c1ccccc1)c1nonc1S(=O)(=O)c1ccccc1`: in the experiment with Trypanosoma cruzi [1], the IC50 is 2 µM.
On the same count and under the same terms, the value for `CCOc1no[n+]([O-])c1-c1ccccc1` was 7.5 µM; that for `O=S(=O)(CCO)c1c(-c2ccccc2)no[n+]1[O-]` was 7.5 µM.
As for `CC1CS(=O)(=O)CCN1/N=C/c1ccc([N+](=O)[O-])o1` (centres undefined) [NIFURTIMOX], the IC50 was 4.9 µM in the experiment with Trypanosoma cruzi [2], 9.7 µM in the experiment with Trypanosoma cruzi [3] and 7.7 µM in the experiment on Trypanosoma cruzi [1].
For the compound `O=S(=O)(c1ccccc1)c1c(OCCCO)no[n+]1[O-]`, in the experiment with Trypanosoma cruzi [1], the IC50 was found to be 7.5 µM.
For `CCSCCS(=O)(=O)c1nonc1-c1ccccc1`, the IC50 was more than 50 µM with Trypanosoma cruzi [2], more than 50 µM in the experiment on Leishmania pifanoi, 28.7 µM in the experiment on Trypanosoma cruzi [3] and more than 50 µM in the experiment with Leishmania braziliensis. Moreover, the inhibition of growth at 25 µM in the experiment on Trypanosoma cruzi [4] is 25%.
Turning to `Cc1ncc([N+](=O)[O-])n1CCOc1nonc1-c1ccccc1`, the IC50 with Trypanosoma cruzi [1] was found to be 5 µM.
On to `Nc1no[n+]([O-])c1-c1ccccc1`, for which the IC50 in the experiment with Trypanosoma cruzi [1] is 25 µM.
With `CN(C)CCCOc1no[n+]([O-])c1S(=O)(=O)c1ccccc1`, the IC50 with Trypanosoma cruzi [1] was 3 µM.
For the compound `CCCCCCNC(=O)N/N=C/c1c(-c2ccccc2)no[n+]1[O-]`, in the experiment with Trypanosoma cruzi [1], the IC50 was 25 µM.
